Laboratory results taken from article PMC12040169 (PLOS Biology, 2025).

Assay: in vitro
Settings: human, hela cells, % viability

Compound	viability at 28.5 h, 10 µM [%]
O=C(O)c1ccc(NS(=O)(=O)c2ccc(C(F)(F)F)cc2[N+](=O)[O-])cc1 [CBK034063]	113
O=C(Nc1cccc(N2CCNCC2)c1)c1coc2c1C(=O)CCC2 [CBK034113T]	87.2
COc1ccc(/C=C(\C)C(=O)Nc2cccc(N3CCNCC3)c2)cc1OC [CBK034115T]	90.1
Cc1oc(-c2ccccc2)cc1C(=O)Nc1ccc(N2CCNCC2)nc1 [CBK034127T]	80.3
O=C(/C=C/c1cccnc1)Nc1cccc(N2CCNCC2)c1 [CBK034128T]	109
O=C(NCc1ccccc1OC1CCNC1)c1ccc(-c2cccc(C(F)(F)F)c2)o1 (stereo not shown) [CBK034151T]	101
COc1ccc(/C=C(\C)C(=O)NCc2ccccc2OC2CCNC2)cc1OC (stereo not shown) [CBK034157T]	90
Cc1noc(C)c1CS(=O)(=O)Cc1ccc(Cl)cc1 [CBK034194]	84.9
Cc1noc(C)c1C[S+]([O-])c1ccc(Br)cc1 (stereo not shown) [CBK034195]	95.6
O=C(O)c1ccc(CCN2CCCC2)nc1 [CBK034220]	107
Cc1ccc(NC(=O)CSc2nnc(N)[nH]2)cc1 [CBK034301]	110
C/C=N\n1c(CO)nnc1CO [CBK034325]	86.5
CC(=O)Nc1c(C)ccc(S(=O)(=O)N2CCOCC2)c1C [CBK034327]	98.6
CCOC(=O)c1cccc(NS(=O)(=O)c2cc(F)c(Br)cc2F)c1 [CBK034333]	89.2
CC(=O)Nc1cc(S(=O)(=O)N2CCOCC2)c(Br)cc1C [CBK034334]	92.8
CCOC(=O)c1cccc(NS(=O)(=O)c2c(C)noc2C)c1 [CBK034339]	110
CCOC(=O)c1cccc(NS(=O)(=O)c2ccc(C)c([N+](=O)[O-])c2)c1 [CBK034343]	84.8
CCN(CC)C(=O)c1ccc(NS(=O)(=O)c2cc(F)c(Br)cc2F)cc1 [CBK034388]	90.1
CCN(CC)C(=O)c1ccc(NS(=O)(=O)Cc2ccccc2[N+](=O)[O-])cc1 [CBK034396]	97.1
Cc1noc(C)c1S(=O)(=O)Nc1ccc(C(=O)Nc2ccc(F)cc2)cc1 [CBK034410]	95.1
CCCCC(O)(Cc1onc(-c2ccccc2)c1C(=O)N(C)C)c1ccc(CN2CCCC2)cc1 (stereo not shown) [CBK034415T]	113
CCOC(=O)CNS(=O)(=O)c1ccc(Cl)c(Cl)c1Cl [CBK034428]	92

Compound	viability at 28.5 h, 10 µM [%]
CCCc1ccc(S(=O)(=O)NCC(=O)OCC)cc1 [CBK034429]	113
CCOC(=O)CNS(=O)(=O)c1ccc(-c2ccccc2)cc1 [CBK034435]	99.5
CCOC(=O)CNS(=O)(=O)c1ccc(F)cc1 [CBK034442]	92.3
CCOC(=O)CNS(=O)(=O)c1ccc(C(F)(F)F)cc1[N+](=O)[O-] [CBK034446]	102
O=C(O)CNS(=O)(=O)c1cc(Cl)sc1Cl [CBK034452]	91.4
COc1ccc(S(=O)(=O)NCC(=O)O)cc1OC [CBK034454]	96.2
O=C(O)CNS(=O)(=O)c1cc(Br)c(Cl)s1 [CBK034455]	114
O=C(O)CNS(=O)(=O)c1ccc(-c2ccccc2)cc1 [CBK034457]	98.9
O=C(O)CNS(=O)(=O)c1ccc2ccccc2c1 [CBK034460]	94.1
O=C(O)CNS(=O)(=O)c1cccc2cccnc12 [CBK034462]	85.9
O=C(CNS(=O)(=O)c1ccc(Cl)c(Cl)c1Cl)N1CCOCC1 [CBK034472]	110
O=C(CNS(=O)(=O)c1cc(Br)c(Cl)s1)N1CCOCC1 [CBK034474]	100
CN1CCN(C(=O)CNS(=O)(=O)c2cc(F)c(Br)cc2F)CC1 [CBK034481]	99.5
CN1CCN(C(=O)CNS(=O)(=O)c2cc(Br)c(Cl)s2)CC1 [CBK034482]	94
CCN(CC)C(=O)CNS(=O)(=O)c1ccc(OC)c(OC)c1 [CBK034499]	103
CCN(CC)C(=O)CNS(=O)(=O)Cc1ccccc1[N+](=O)[O-] [CBK034504]	94.3
O=C(CN1CCCC1=O)N1CCN(C(=O)c2ccc(Br)o2)CC1 [CBK034530]	90.8
CCCc1ccc(S(=O)(=O)Nc2ccc(C(=O)N3CCN(C)CC3)cc2)cc1 [CBK034547]	90.1
CN1CCN(C(=O)c2ccc(NS(=O)(=O)c3ccc(Oc4ccccc4)cc3)cc2)CC1 [CBK034559]	97.4
O=S(=O)(Nc1nc(CCNCCO)cs1)c1ccc(Oc2ccccc2)cc1 [CBK034632]	111
Cc1ccc(NS(=O)(=O)c2c(Br)sc3ccnc(N4CCN(C)CC4)c23)cc1 [CBK034654C]	103
CC(NC(=O)N(CCCN)Cc1ccccc1C(F)(F)F)c1ccccc1 (stereo not shown) [CBK034668C]	99.9

Compound	viability at 28.5 h, 10 µM [%]
CC(NC(=O)N(CCCN)Cc1c[nH]c(-c2ccccc2)n1)c1cccc2ccccc12 (stereo not shown) [CBK034672C]	119
COC(=O)c1sccc1NS(=O)(=O)c1ccccc1C(F)(F)F [CBK034717]	108
COc1ccc(S(=O)(=O)Nc2sccc2C#N)cc1 [CBK034732]	110
Cc1ccc(C#N)c(S(=O)(=O)Nc2cc(N3C[C@@H](C)N[C@@H](C)C3)c3occc3c2)c1 [CBK034756C]	89.7
O=C(NC(=O)C1CCNCC1)Nc1ccccc1 [CBK034794]	93.8
CC(C)N1CCC(C(=O)NC(=O)Nc2ccc3c(c2)OCCO3)CC1 [CBK034799]	93.6
CC(C)N1CCC(C(=O)NC(=O)NCCOc2cccc3ccccc23)CC1 [CBK034807]	91.9
COc1cccc(CNC(=O)NC(=O)C2CCN(C)CC2)c1 [CBK034828]	91.9
COc1cc(CNC(=O)NC(=O)C2CCN(C(C)=O)CC2)cc(OC)c1OC [CBK034833]	105
CC(=O)N1CCC(C(=O)NC(=O)NCc2ccc(F)cc2)CC1 [CBK034834]	107
O=C(NCc1ccc(F)cc1)NC(=O)C1CCN(CCc2ccc(Br)cc2)CC1 [CBK034836]	95.2
COc1ccc(CNC(=O)NC(=O)C2CCN(C(C)=O)CC2)c(OC)c1 [CBK034839]	96.9
CC(=O)N1CCC(C(=O)NC(=O)NC2CCCCC2)CC1 [CBK034847]	99.4
CC(=O)N1CCC(C(=O)NC(=O)NCCc2ccccc2)CC1 [CBK034851]	96.9
O=C(NCc1ccccc1)NC(=O)C1CCN(CCCOc2cccc3ccccc23)CC1 [CBK034856]	84.6
COc1cc(CNC(=O)NC(=O)C2CCN(CCCc3ccc(Cl)c(Cl)c3)CC2)cc(OC)c1OC [CBK034858]	107
COc1cccc(CCNC(=O)NC(=O)C2CCN(S(C)(=O)=O)CC2)c1 [CBK034860]	99
Cc1ccccc1NC(=O)NC(=O)C1CCN(S(C)(=O)=O)CC1 [CBK034862]	87.7
Cc1ccc(NC(=O)NC(=O)C2CCN(S(C)(=O)=O)CC2)cc1 [CBK034863]	93.4
Cn1cc(CCN2CCC(C(=O)NC(=O)Nc3ccccc3)CC2)c2ccccc21 [CBK034867]	83.6
COc1ccc(CNC(=O)NC(=O)C2CCN(CCCc3ccc4c(c3)OCO4)CC2)c(OC)c1 [CBK034875]	100
CCOc1ccccc1NC(=O)NC(=O)C1CCN(C(C)c2ccc(Cl)cc2)CC1 (stereo not shown) [CBK034899]	98.4

Compound	viability at 28.5 h, 10 µM [%]
CCOc1ccccc1NC(=O)NC(=O)C1CCN(CCCc2ccc3c(c2)OCO3)CC1 [CBK034924]	88.6
CC(C)NC(=O)NC(=O)C1CCN(CCCc2ccc(Cl)c(Cl)c2)CC1 [CBK034947]	89.8
Cc1ccc2[nH]cc(CCN3CCC(C(=O)NC(=O)Nc4ccccc4F)CC3)c2c1 [CBK034974]	93
Cc1ccc(NC(=O)NC(=O)C2CCN(CCc3ccc(F)cc3)CC2)cc1Cl [CBK035047]	89.5
Cc1ccc(NC(=O)NC(=O)C2CCN(CCCc3ccc(F)cc3)CC2)cc1Cl [CBK035057]	94.2
O=C(NC(=O)C1CCN(CCc2cccc(C(F)(F)F)c2)CC1)Nc1cccc2ccccc12 [CBK035070]	92.2
COc1ccc(Cl)cc1NC(=O)NC(=O)C1CCN(CCOc2cccc3ccccc23)CC1 [CBK035116]	90.9
O=C(NC(=O)C1CCN(CCc2ccc3c(c2)CCO3)CC1)Nc1ccccc1Cl [CBK035147]	84.3
CCNC(=O)NC(=O)C1CCN(CCc2ccc(O)c(OC)c2)CC1 [CBK035184]	102
O=C(NC(=O)C1CCN(CC2COc3ccccc3O2)CC1)Nc1ccccc1 (stereo not shown) [CBK035267]	92.4
COc1cc(CCN2CCC(c3nc(-c4ccccc4)c4ccccn34)CC2)cc(OC)c1OC [CBK035278]	91
Clc1ccc(-c2nc(C3CCN(CCc4ccccc4)CC3)n3ccccc23)cc1 [CBK035316]	90.7
COc1cccc(-c2nc(C3CCN(CCc4ccc(F)cc4)CC3)n3ccccc23)c1 [CBK035373]	94.7
c1ccc(-c2nc(C3CCNCC3)n3ccncc23)cc1 [CBK035434]	100
NCCc1nc(-c2ccccc2)c2cnccn12 [CBK035705]	101
CNCCc1nc(-c2cccs2)c2ccccn12 [CBK035905]	94.5
CNCCc1nc(-c2ccc(F)cc2)c2cnccn12 [CBK035927]	90.7
CS(=O)(=O)N1CCC(c2nc(-c3ccc(C(F)(F)F)cc3)c3ccccn23)CC1 [CBK036006]	86.4
COc1ccn2c(CCCN(C)C3Cc4ccccc4C3)nc(-c3ccc4c(c3)OCO4)c2c1 [CBK036303]	100
CN1CCC(Oc2ncccc2OCc2ccccc2)CC1 [CBK036311]	97.4
Cn1cc(-c2ccccc2CN2CCCC2)c2onc(-c3ccccc3)c2c1=O [CBK036319C]	115

Same assay, conditions: human, hela cells, % viability, bulk resorufin, single well

Compound	viability at 28.5 h, 10 µM [%]
COC(=O)c1cccc2c3c(n(Cc4ccccc4)c12)CCCC3=O [CBK036304]	94.7
